Measurements: patent publication EP4755885A1 (Shanghai Hansoh Biomedical Co., Ltd., priority 2023, dated 2025)
Read-outs that look alike come from different tables or passages of the source.

Tests used:
human GLP-1 receptor = target: T1, human GLP-1 receptor (Homo sapiens, UniProt P43220); assay: cAMP production in cell line stably transformed with human GLP1 receptor, 2 h co-incubation (HTRF); type: cell-based; details: CHO-K1/GLP-1R/CRE-luc cells, stimulation for 2 h
T1 construct: expressed in transfected cells
T1 sequence (P43220 24-463): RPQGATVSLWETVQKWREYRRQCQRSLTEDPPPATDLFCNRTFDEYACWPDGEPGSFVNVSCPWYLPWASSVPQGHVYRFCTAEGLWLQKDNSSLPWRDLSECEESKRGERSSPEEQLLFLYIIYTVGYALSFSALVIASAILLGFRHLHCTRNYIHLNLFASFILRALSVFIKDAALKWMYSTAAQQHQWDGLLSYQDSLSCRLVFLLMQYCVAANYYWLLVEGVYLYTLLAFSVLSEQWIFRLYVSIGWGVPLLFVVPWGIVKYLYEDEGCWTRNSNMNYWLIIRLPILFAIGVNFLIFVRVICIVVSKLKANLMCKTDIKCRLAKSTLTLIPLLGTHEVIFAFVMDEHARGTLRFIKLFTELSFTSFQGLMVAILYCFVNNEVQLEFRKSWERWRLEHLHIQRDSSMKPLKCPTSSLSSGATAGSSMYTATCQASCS
In short: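 CHO-K1/GLP-1R/CRE-luc cells (human GLP-1R) incubated 2 h at 37 °C with compound (12-point 3-fold series) and 0.5 mM IBMX in DMEM/F12 with 0.1% casein. cAMP measured by HTRF (665/620 nm ratio); EC50 from four-parameter fit.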

[1] = Pharmacokinetic evaluation in mice, oral administration; type: in vivo, Balb/c mice; details: p.o. 5 mg/kg, plasma, single PK; for AUC(0-inf) / AUC(0-t) / Cmax / Tmax / MRT inf: mouse, in vivo, po; for MRT inf: read-out: MRT 0-∞
In short: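 Male Balb/c mice (n=3) dosed p.o. at 5 mg/kg after overnight fast, vehicle 10% PEG400/10% PG/80% glycine buffer (pH 10), 0.5 mg/mL. EDTA plasma, acetonitrile precipitation, compound quantified by LC/MS/MS; PK parameters by noncompartmental-style software calculation.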

[2] = Long-term administration, body weight and food intake of mice fed with CDAHFD high-fat diet; type: in vivo, GLP-1R humanized C57BL/6 mice
Text: The purpose of this assay was to evaluate the effects of long-term administration of the compound on the body weight and food intake of GLP-1R humanized C57BL/6 mice fed with CDAHFD high-fat diet.
C57BL/6_hGLP-1R, male, 5-8 weeks, purchased from Biocytogen Pharmaceuticals (Beijing) Co., Ltd. • Choline-deficient, L-amino acid-defined, high-fat diet (CDAHFD), purchased from Shanghai Bopai Biotechnology Co., Ltd. (Research diet-A06071302) • Ultra-clean bench (CJ-2F, Suzhou Fengshi Experimental Animal Equipment Co., Ltd. • Electronic balance (BSA2202S-CW, Sartorius)
• 3.1 On the day of starting feeding the high-fat diet, the C57BL/6 mice were randomly grouped according to body weight. The first group was Blank, with 7 mice, and was fed with normal control diet. The remaining animals were the modeling group, and were fed with the high-fat diet until the end of the experiment. • 3.2 In week 4 of CDAHFD feeding, the animals in the modeling group were randomly grouped according to body weight, with 7 mice in each group. The first group was Vehicle group (Vehicle: 10%PEG400/10%PG/80% glycine buffer (100 mM glycine, 26 mM NaOH, pH 9) buffer), and was administered solvent; the remaining group was administration group. Administration regime: the corresponding compound was orally administered for a period of 21 days, once each day, the administration dose being 0.3 mg/kg, 1 mg/kg, 3 mg/kg, and 10 mg/kg, and the administration volume being 10 mL/kg. The Blank group continued to be fed with the normal diet, and was orally administered solvent once each day. • 3.3 The day of administration was defined as Day 0. • 3.4 The animals were weighed at each administration and the data were recorded. Oral administration was performed according to body weight, and the administration volume was 10 mL/kg. • 3.5 Starting from day 0 of the experiment, the food intake of the mice in each group was measured every three days. Specifically, after each weighing and administration, the diet was renewed, and the added amount and remaining amount were recorded. • 3.6 On Day 21, the end day, all mice were euthanized sequentially according to grouping order. Plasma and tissues (liver, kidney, ileum, pancreas, and brain) were taken for PK determination, and serum was taken for blood biochemistry determination (ALT, AST, TG, TC, and LDL-C).
The body weight and body weight change rate of the mice after administration were summarized and statistically analyzed. The body weight change rate was calculated according to (BWt - BW0) / BW0 × 100%, where BWt represents mouse body weight on day t of the experiment, and BW0 represents mouse body weight on day 0 of the experiment.

[3] = 3 mg/kg orally once each day for 21 days

| SMILES | EC50 (human GLP-1 receptor) | AUC(0-inf) [1] | AUC(0-t) [1] | Cmax [1] | Tmax [1] | MRT inf [1] | tl/2 [1] | Body weight change (%)- [2, 3] | EC50 (human GLP-1 receptor; read-out: EC50) | AUC(0-inf) ([1]; male, Balb/c) | AUC(0-t) ([1]; male, Balb/c) | Cmax ([1]; male, Balb/c) | Tmax ([1]; male, Balb/c) | MRT inf ([1]; male, Balb/c) | Body weight change (%)- ([2]; 0.3mg/kg orally once each day for 21 days) | Body weight change (%)- ([2]; 1 mg/kg orally once each day for 21 days) |
| --- | --- | --- | --- | --- | --- | --- | --- | --- | --- | --- | --- | --- | --- | --- | --- | --- |
| Cc1cc(-n2nc3c(c2-n2ccn(-c4ccc5c(cnn5C5CC5)c4F)c2=O)[C@H](C)N(C(=O)c2cc4cc([C@H]5CCOC(C)(C)C5)ccc4n2[C@@]2(c4noc(=O)[nH]4)C[C@@H]2COC2CC2)CC3)cc(C)c1F [Example 67] | 0.024 nM | 12100 ng·h/mL | 11200 ng·h/mL | 1430 ng/mL | 4 h | 8.2 h | 7.6 h | -20.34% | – | – | – | – | – | – | – | – |
| C#C[C@H]1C[C@]1(c1noc(=O)[nH]1)n1c(C(=O)N2CCc3nn(-c4cc(C)c(F)c(C)c4)c(-n4ccn(-c5ccc6c(cnn6C6CC6)c5F)c4=O)c3[C@@H]2C)cc2cc([C@H]3CCOC(C)(C)C3)ccc21 [Example 143] | – | – | – | – | – | – | 6.9 h | -19.43% | 0.013 nM | 13300 ng·h/mL | 12200 ng·h/mL | 1200 ng/mL | 2 h | 9 h | – | – |
| CC#C[C@H]1C[C@]1(c1noc(=O)[nH]1)n1c(C(=O)N2CCc3nn(-c4cc(C)c(F)c(C)c4)c(-n4ccn(-c5ccc6c(cnn6C6CC6)c5F)c4=O)c3[C@@H]2C)cc2cc([C@H]3CCOC(C)(C)C3)ccc21 [Example 144, 3-((1S,2R)-1-(2-((S)-3-(3-(1-cyclopropyl-4-fluoro-1H-indazole-5-yl)-2-carbonyl-2,3-dihydro-1H-imidazole-1-yl)-2-(4-fluoro-3,5-dimethylphenyl)-4-methyl-4,5,6,7-tetrahydro-2H-pyrazolo[4,3-c]pyridin-5-carbonyl)-5-((S)-2,2-dimethyltetrahydro-2H-pyrano-4-yl)-1H-indole-1-yl)-2-(propyl-1-alkynyl-1-yl)cyclopropyl)-1,2,4-oxadiazol-5(4H)-one] | – | 35100 ng·h/mL | 23500 ng·h/mL | 2240 ng/mL | 3 h | 20.8 h | 15.7 h | – | 0.05 nM | – | – | – | – | – | -10.40% | -14.70% |
| [2H]C([2H])([2H])n1nc2c3c(c(-n4ccn(-c5c6c(nn5-c5cc(C)c(F)c(C)c5)CCN(C(=O)c5cc7cc([C@H]8CCOC(C)(C)C8)ccc7n5[C@@]5(c7noc(=O)[nH]7)C[C@@H]5C)[C@H]6C)c4=O)ccc31)OCCC2 [Example 282, 3-((1S,2S)-1-(5-((S)-2,2-dimethyltetrahydro-2H-pyran-4-yl)-2-((S)-2-(4-fluoro-3,5-dimethylphenyl)-4-methyl-3-(3-(2-(methyl-d3)-2,7,8,9-tetrahydrooxaheptano[4,3,2-cd]indazol-5-yl)-2-carbonyl-2,3-dihydro-1H-imidazol-1-yl)-4,5,6,7-tetrahydro-2H-pyrazolo[4,3-c]pyridine-5-carbonyl)-1H-indol-1-yl)-2-methylcyclopropyl)-1,2,4-oxadiazol-5(4H)-one] | – | 18200 ng·h/mL | 15000 ng·h/mL | 1510 ng/mL | 2 h | 13 h | 9.7 h | – | 0.074 nM | – | – | – | – | – | – | – |
